{"source": "paper PMC5355037", "about": "“The repurposed anthelmintic mebendazole in combination with trametinib suppresses refractory NRAS^Q61K melanoma” (Oncotarget, 2017)", "key": {"[1]": {"target": "BRAF (Homo sapiens, UniProt P15056)", "sequence (P15056 whole entry)": "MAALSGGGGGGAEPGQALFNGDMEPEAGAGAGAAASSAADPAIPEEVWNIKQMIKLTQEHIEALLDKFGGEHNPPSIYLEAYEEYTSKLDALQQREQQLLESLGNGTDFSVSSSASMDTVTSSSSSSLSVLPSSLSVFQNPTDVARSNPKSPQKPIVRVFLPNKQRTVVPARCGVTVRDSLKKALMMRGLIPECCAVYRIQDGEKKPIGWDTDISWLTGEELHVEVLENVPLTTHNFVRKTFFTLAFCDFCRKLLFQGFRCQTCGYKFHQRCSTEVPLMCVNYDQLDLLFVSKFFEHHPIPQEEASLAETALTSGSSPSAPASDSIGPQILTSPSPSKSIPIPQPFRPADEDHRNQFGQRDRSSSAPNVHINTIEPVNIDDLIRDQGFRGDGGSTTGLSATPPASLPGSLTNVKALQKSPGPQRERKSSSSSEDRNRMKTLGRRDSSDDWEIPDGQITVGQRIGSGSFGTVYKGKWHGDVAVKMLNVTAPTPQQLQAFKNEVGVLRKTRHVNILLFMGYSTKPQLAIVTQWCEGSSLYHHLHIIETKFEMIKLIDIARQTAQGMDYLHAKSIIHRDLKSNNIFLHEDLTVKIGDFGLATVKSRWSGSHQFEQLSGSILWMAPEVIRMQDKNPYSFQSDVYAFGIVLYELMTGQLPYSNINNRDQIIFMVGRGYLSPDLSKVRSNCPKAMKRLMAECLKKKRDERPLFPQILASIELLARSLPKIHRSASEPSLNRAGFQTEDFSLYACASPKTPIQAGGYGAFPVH", "assay": "in vitro kinase assay, percent control and binding affinity"}, "[2]": {"target": "BRAF (V600E) (Homo sapiens, UniProt P15056, V600E)", "sequence (P15056 whole entry V600E)": "as the sequence (P15056 whole entry) above, with V600E counted along it", "assay": "in vitro kinase assay, percent control and binding affinity", "conditions": "Kinase Target BRAF (V600E)"}, "[3]": {"target": "MEK1 (Homo sapiens, UniProt Q02750)", "sequence (Q02750 whole entry)": "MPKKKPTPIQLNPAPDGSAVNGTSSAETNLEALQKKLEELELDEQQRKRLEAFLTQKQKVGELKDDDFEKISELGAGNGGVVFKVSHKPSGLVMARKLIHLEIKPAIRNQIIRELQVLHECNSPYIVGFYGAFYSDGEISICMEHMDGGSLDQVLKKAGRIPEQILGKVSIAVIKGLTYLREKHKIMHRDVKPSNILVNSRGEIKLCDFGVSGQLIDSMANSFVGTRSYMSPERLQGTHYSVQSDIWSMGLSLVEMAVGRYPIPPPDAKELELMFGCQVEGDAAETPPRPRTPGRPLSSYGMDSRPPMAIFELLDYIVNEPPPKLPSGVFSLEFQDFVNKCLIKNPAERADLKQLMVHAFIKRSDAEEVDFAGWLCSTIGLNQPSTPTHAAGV", "assay": "in vitro kinase assay, percent control", "format": "binding", "conditions": "Kinase Target MEK1"}, "[4]": {"target": "MEK2 (Homo sapiens, UniProt P36507)", "sequence (P36507 whole entry)": "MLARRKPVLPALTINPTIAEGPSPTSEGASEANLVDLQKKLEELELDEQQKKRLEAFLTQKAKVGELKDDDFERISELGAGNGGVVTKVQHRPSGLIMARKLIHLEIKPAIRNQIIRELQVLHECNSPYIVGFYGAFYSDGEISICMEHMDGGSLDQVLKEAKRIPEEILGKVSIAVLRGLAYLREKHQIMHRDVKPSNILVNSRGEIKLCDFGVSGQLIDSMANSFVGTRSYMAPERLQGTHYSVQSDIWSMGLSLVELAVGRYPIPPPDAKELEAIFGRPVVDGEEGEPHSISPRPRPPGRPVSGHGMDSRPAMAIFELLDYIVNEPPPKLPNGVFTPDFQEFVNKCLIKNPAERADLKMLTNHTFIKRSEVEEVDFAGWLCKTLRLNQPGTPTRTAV", "assay": "in vitro kinase assay, percent control", "format": "binding", "conditions": "Kinase Target MEK2"}, "[5]": {"target": "C-RAF (Homo sapiens, UniProt P04049)", "sequence (P04049 whole entry)": "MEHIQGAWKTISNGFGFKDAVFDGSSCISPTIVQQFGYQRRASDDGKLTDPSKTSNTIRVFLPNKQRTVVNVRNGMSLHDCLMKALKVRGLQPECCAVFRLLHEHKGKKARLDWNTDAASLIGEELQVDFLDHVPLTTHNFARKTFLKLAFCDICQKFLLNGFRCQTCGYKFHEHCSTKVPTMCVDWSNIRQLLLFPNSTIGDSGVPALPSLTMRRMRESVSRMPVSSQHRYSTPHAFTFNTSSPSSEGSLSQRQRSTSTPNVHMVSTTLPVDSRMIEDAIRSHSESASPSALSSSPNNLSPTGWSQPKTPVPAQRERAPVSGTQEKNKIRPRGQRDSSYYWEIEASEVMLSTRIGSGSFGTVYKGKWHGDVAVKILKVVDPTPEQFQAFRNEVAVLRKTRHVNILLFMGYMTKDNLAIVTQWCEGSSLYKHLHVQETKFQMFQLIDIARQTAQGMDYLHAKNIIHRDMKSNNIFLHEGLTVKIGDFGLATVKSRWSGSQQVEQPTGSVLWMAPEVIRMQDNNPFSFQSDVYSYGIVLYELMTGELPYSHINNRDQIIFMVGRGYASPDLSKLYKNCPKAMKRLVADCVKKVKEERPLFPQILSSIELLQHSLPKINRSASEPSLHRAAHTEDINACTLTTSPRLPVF", "assay": "in vitro kinase assay, percent control", "format": "binding", "conditions": "Kinase Target C-RAF"}, "[6]": {"target": "VEGFR2 (Homo sapiens, UniProt P35968)", "sequence (P35968 20-1356)": "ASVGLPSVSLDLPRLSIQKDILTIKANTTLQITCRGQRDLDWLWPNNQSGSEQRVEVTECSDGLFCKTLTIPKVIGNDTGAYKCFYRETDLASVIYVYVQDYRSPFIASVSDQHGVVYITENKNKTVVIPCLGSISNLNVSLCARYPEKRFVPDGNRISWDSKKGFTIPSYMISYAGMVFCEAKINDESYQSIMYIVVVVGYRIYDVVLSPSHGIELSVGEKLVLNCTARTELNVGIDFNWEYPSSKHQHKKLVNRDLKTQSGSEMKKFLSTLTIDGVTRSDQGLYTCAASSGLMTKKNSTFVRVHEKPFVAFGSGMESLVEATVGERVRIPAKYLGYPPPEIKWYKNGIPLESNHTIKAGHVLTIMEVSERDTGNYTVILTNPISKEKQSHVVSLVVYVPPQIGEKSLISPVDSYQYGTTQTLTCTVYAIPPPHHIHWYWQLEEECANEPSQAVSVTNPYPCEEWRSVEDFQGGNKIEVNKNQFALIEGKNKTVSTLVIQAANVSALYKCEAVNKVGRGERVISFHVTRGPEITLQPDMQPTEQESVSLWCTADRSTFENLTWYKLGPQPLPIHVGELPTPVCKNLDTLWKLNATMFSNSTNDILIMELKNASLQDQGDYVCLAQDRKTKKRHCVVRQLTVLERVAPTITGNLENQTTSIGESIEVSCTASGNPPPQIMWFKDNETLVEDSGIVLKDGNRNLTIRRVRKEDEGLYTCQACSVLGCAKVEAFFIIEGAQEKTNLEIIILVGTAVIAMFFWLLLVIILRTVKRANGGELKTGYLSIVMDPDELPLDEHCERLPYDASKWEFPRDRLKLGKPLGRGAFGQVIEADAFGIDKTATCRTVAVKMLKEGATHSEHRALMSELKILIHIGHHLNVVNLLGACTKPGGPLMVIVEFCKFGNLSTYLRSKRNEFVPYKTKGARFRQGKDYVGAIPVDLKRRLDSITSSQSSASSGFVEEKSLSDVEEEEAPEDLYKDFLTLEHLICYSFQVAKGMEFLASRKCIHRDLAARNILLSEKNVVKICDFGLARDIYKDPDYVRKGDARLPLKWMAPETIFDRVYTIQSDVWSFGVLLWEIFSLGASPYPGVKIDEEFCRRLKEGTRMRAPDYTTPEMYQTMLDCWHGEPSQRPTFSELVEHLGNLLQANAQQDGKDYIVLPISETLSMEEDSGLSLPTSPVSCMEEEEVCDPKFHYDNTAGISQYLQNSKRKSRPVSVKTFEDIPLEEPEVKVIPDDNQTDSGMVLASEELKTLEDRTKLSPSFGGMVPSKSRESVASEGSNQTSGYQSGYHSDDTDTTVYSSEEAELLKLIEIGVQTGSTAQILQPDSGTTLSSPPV", "assay": "in vitro kinase assay, percent control and binding affinity", "conditions": "Kinase Target VEGFR2"}, "[7]": {"tested_on": "BAK, BUL and STU melanoma cells", "assay": "XTT cell viability assay, statements for all three lines", "format": "cell-based, human", "conditions": "72 h; for concentration at which significant growth inhibition was observed: 2-way ANOVA; for cytotoxic activity as single agent (in words): all three cell lines", "description": "MBZ, dabrafenib, and trametinib were purchased from Sigma-Aldrich and ActiveBiochem, respectively. 5 × 10^3 viable cells per well were plated in 96-well dishes and allowed to recover for 12 h prior to drug treatment. Cells in triplicate wells were treated for up to 72 h (based on initial time course experiments showing maximal effects at that time point) with different concentrations of trametinib, dabrafenib, or MBZ alone, or a combination of MBZ and trametinib. Negative controls were exposed to vehicle DMSO in the same volumes. Cell viability was assessed by an XTT assay, according to a manufacturer's specifications (Biotium Inc). Reduced XTT was measured by absorbance at 490 nm on a PerkinElmer Victor3 plate reader. Cells exposed to detergent served as a positive control.\nThe results shown are based on a single experiment in triplicate, and repeated in three independent experiments with essentially the same results. Data from triplicates of treatment groups were compared using Student's t-test or 2-way ANOVA (multiple comparisons) for significance, and p values of < 0.05 were considered statistically significant. For tumor sizes, the rate-based T/C (tumor/control) test of significance was used as described, using the author's template. The results are representative of 3 independent experiments with reproducible results. For determining synergism, the combination index (τ) was calculated from single dose-response curves and combination experiments as τ = xA/XA+xB/XB, in which, for a given cytotoxic effect, xA and xB are the concentrations of drugs A and B in the combination, and XA and XB are the concentrations of drugs A and B that achieve the same cytotoxic effect when given alone. A τ value of 1 indicates additivity, τ less than 1 indicates synergy, and τ greater than 1 indicates antagonism."}, "[8]": {"tested_on": "BAK melanoma cells xenografted into athymic mice", "assay": "mouse xenografting, tumor growth", "format": "in vivo", "conditions": "gavage; for tumor growth (in words): trametinib 0.1 or 3 mg/kg/qd, alone or combined", "description": "All animal experiments were performed in accordance with the guidelines and approval of Georgetown University Animal Care and Use Committee. Athymic 6-week old male mice (Taconic) were acclimated to the Division of Comparative Medicine at Georgetown University a week prior to xenografting. 3×10^6 melanoma cells were resuspended in Matrigel and injected subcutaneously into the hind flanks of athymic mice using a 22-gauge needle. […] Drugs were administered by oral gavage. Each testing group contained three to five mice in each of four experiments. Each tumor from each treatment group was measured on indicated days, and all tumor sizes were then normalized to their size at day 0 of drug treatment. All data from all four experiments was then combined for statistical analysis, to compare every mouse from each treatment group. […] The results were expressed as the mean (±SD) of tumor volume in each group. After five weeks, mice were euthanized; tumors extracts were derived for immunoblot analysis. […] This yields a similar constant to that calculated by Mosteller for humans: BSA (m^2) = [[…] (kg)]*60 [36]. […] For high dose trametinib, this is equivalent to 14.4 mg/person/day. […] By comparison, patient doses range from 100 mg one time (pinworms) to 200 mg/kg per day for 12 weeks ([…] disease in children) including doses up to 6 g per day. […] The results shown are based on a single experiment in triplicate, and repeated in three independent experiments with essentially the same results. […] For tumor sizes, the rate-based T/C (tumor/control) test of significance was used as described, using the author's template. The results are representative of 3 independent experiments with reproducible results. For determining synergism, the combination index (τ) was calculated from single dose-response curves and combination experiments as τ = xA/XA+xB/XB, in which, for a given cytotoxic effect, xA and xB are the concentrations of drugs A and B in the combination, and XA and XB are the concentrations of drugs A and B that achieve the same cytotoxic effect when given alone."}, "[9]": {"tested_on": "pMEK1/2 S217/221", "assay": "immunoblot analysis of BAK cells", "format": "cell-based, human", "conditions": "100 nM, combination within 30 min", "description": "(§1) SDS-PAGE and transfer of separated proteins to nitrocellulose membranes were performed according to standard procedures. Membranes were stained with Ponceau S (0.1%) to verify equal loading and transfer of proteins, and then incubated with antibodies specific for pERK1/2 T202/Y204, pMEK1/2 S217/221, pBAD S-112, total BAD, total ERK1/2, total MEK1/2, BCL2 (Santa Cruz Biotech), BCLXL (Santa Cruz Biotech), cleaved PARP (Cell Signaling), or GAPDH (Abcam; loading control). Immune complexes were detected by incubation with appropriate horseradish peroxidase-conjugated antibodies to mouse or rabbit IgG (1:3000) and enhanced chemiluminescence (Pierce, Rockford, IL)."}, "[10]": {"tested_on": "phosphorylation of ERK1/2 (T202/Y204)", "assay": "immunoblot analysis of BAK cells", "format": "cell-based, human", "conditions": "100 nM, combination undetectable by 30 min", "description": "as §1"}, "[11]": {"tested_on": "MEK1/2 and ERK1/2 phosphorylation", "assay": "immunoblot analysis of tumor xenograft extracts", "format": "in vivo, mice", "conditions": "tumors collected at termination; combination = HDT+MBZ", "description": "All animal experiments were performed in accordance with the guidelines and approval of Georgetown University Animal Care and Use Committee. Athymic 6-week old male mice (Taconic) were acclimated to the Division of Comparative Medicine at Georgetown University a week prior to xenografting. 3×10^6 melanoma cells were resuspended in Matrigel and injected subcutaneously into the hind flanks of athymic mice using a 22-gauge needle. […] Drugs were administered by oral gavage. Each testing group contained three to five mice in each of four experiments. Each tumor from each treatment group was measured on indicated days, and all tumor sizes were then normalized to their size at day 0 of drug treatment. All data from all four experiments was then combined for statistical analysis, to compare every mouse from each treatment group. […] The results were expressed as the mean (±SD) of tumor volume in each group. After five weeks, mice were euthanized; tumors extracts were derived for immunoblot analysis. SDS-PAGE and transfer of separated proteins to nitrocellulose membranes were performed according to standard procedures. […] Immune complexes were detected by incubation with appropriate horseradish peroxidase-conjugated antibodies to mouse or rabbit IgG (1:3000) and enhanced chemiluminescence (Pierce, Rockford, IL)."}, "[12]": {"tested_on": "VEGFR-2", "design": "method as in PMID 26234515, PMID 22780961, PMID 24135855", "conditions": "cited from earlier work"}, "[13]": {"tested_on": "PDGFRA", "design": "method as in PMID 26234515, PMID 22780961, PMID 24135855", "conditions": "cited from earlier work"}, "[14]": {"tested_on": "PDGFRB", "design": "method as in PMID 26234515, PMID 22780961, PMID 24135855", "conditions": "cited from earlier work"}, "[15]": {"target": "roundworm tubulin", "design": "method as in PMID 7388055", "conditions": "nematode and cestode parasite tubulin; read-out: apparent binding affinity for tubulin; cited from earlier work"}, "[16]": {"target": "human tubulin", "design": "method as in PMID 7388055", "conditions": "much lower than for parasite tubulin; cited from earlier work"}, "[17]": {"design": "method as in PMID 7094986", "conditions": "chronic oral MBZ 10 mg/kg/day, cited from earlier work"}, "[18]": {"tested_on": "BAK and BUL melanoma cells", "assay": "apoptosis (fluorometric caspase-3 activity, sub-G1) and cell cycle assays", "format": "cell-based, human", "conditions": "100 nM, all time points", "source_text": "Cells were collected, fixed in ethanol, stained with propidium iodide (PI) to determine DNA content, and analyzed by flow cytometry (FACStar PLus; BD BioSciences, San Jose, CA).\nCytosolic extracts, derived from pooled floating and attached cells, were subjected to fluorometric caspase-3 activity assays using fluorescent tetrapeptide substrate specific for caspases-3 (Ac-DEVD-aminomethylcoumarin (AMC, Enzo Life Sciences, Ann Arbor, MI) as previously described. Free AMC, generated as a result of cleavage of the aspartate-AMC bond, was monitored over 30 min with a Wallac Victor^3 fluorometer (Perkin-Elmer, Waltham, MA) at excitation and emission wavelengths of 360 and 460 nm, respectively. The emission from each sample was plotted against time, and linear regression analysis of the initial velocity (slope) for each curve yielded the activity."}}, "data": [{"compound": "COC(=O)Nc1nc2ccc(C(=O)c3ccccc3)cc2[nH]1", "note": "[MBZ, methyl N-[6-(benzoyl)-1H-benzimidazol-2-yl] carbamate]", "values": [{"measurement": "remaining activity at 10 µM", "setting": "[1]; 10 μM, Kinase Target BRAF", "result": 7.8, "unit": "%"}, {"measurement": "Kd", "setting": "[1]; Kinase Target BRAF (BRAF^WT)", "result": 0.23, "unit": "µM"}, {"measurement": "remaining activity at 10 µM", "setting": "[2]; 10 μM", "result": 3.2, "unit": "%"}, {"measurement": "Kd", "setting": "[2]", "result": 0.21, "unit": "µM"}, {"measurement": "remaining activity at 10 µM", "setting": "[3]", "result": 16, "unit": "%"}, {"measurement": "remaining activity at 10 µM", "setting": "[4]", "result": 12, "unit": "%"}, {"measurement": "remaining activity at 10 µM", "setting": "[5]", "result": 23, "unit": "%"}, {"measurement": "remaining activity at 10 µM", "setting": "[6]", "result": 20, "unit": "%"}, {"measurement": "concentration at which significant growth inhibition was observed", "setting": "[7]", "result": "≥ 10", "unit": "nM"}, {"measurement": "cytotoxic activity as single agent (in words)", "setting": "[7]", "result": "weak cytotoxic activity"}, {"measurement": "Rate-based T/C", "setting": "[8]; MBZ vs Vehicle, MBZ 40 mg/kg/qad", "result": 1.04}, {"measurement": "tumor growth (in words)", "setting": "[8]; MBZ 40 mg/kg/qad", "result": "did not work as a monotherapy"}, {"measurement": "pMEK1/2 S217/221 activating phosphorylation (in words)", "setting": "[9]", "result": "not inhibited"}, {"measurement": "activating phosphorylation of ERK1/2 (T202/Y204) (in words)", "setting": "[10]", "result": "diminished"}, {"measurement": "MEK1/2 and ERK1/2 phosphorylation in tumors (in words)", "setting": "[11]", "result": "ability to suppress"}, {"measurement": "concentration at which MBZ inhibits VEGFR-2", "setting": "[12]", "result": 3.6, "unit": "µM"}, {"measurement": "concentration at which MBZ inhibits PDGFRA", "setting": "[13]", "result": 820, "unit": "nM"}, {"measurement": "concentration at which MBZ inhibits PDGFRB", "setting": "[14]", "result": 660, "unit": "nM"}, {"measurement": "Kd", "setting": "[15]", "result": 0.019, "unit": "µM"}, {"measurement": "affinity for human tubulin", "setting": "[16]", "result": "µM range"}, {"measurement": "peak plasma level, variability between patients", "setting": "[17]", "result": "0.34 to 1.69", "unit": "µM"}, {"measurement": "mean peak plasma level", "setting": "[17]; patients", "result": 470, "unit": "nM"}]}, {"compound": "CC(C)(C)c1nc(-c2cccc(NS(=O)(=O)c3c(F)cccc3F)c2F)c(-c2ccnc(N)n2)s1", "note": "[dabrafenib]", "values": [{"measurement": "concentration at which significant growth inhibition was observed", "setting": "[7]", "result": "≥ 1000", "unit": "nM"}, {"measurement": "cytotoxic activity as single agent (in words)", "setting": "[7]", "result": "resistance to dabrafenib except at the highest doses tested"}]}, {"compound": "CC(=O)Nc1cccc(-n2c(=O)n(C3CC3)c(=O)c3c(Nc4ccc(I)cc4F)n(C)c(=O)c(C)c32)c1", "note": "[trametinib]", "values": [{"measurement": "concentration at which significant growth inhibition was observed", "setting": "[7]", "result": "≥ 1", "unit": "nM"}, {"measurement": "Rate-based T/C", "setting": "[8]; HDT vs Vehicle, high dose trametinib 3 mg/kg/qd", "result": 0.73}, {"measurement": "Rate-based T/C", "setting": "[8]; LDT vs Vehicle, low dose trametinib 0.1 mg/kg/qd", "result": 0.93}, {"measurement": "tumor growth (in words)", "setting": "[8]; MBZ 40 mg/kg/qad", "result": "did not show any significant tumor-suppressive effects"}, {"measurement": "percentage of cells in S phase (in words)", "setting": "[18]", "result": "decreased"}, {"measurement": "pMEK1/2 S217/221 activating phosphorylation (in words)", "setting": "[9]", "result": "not inhibited"}, {"measurement": "activating phosphorylation of ERK1/2 (T202/Y204) (in words)", "setting": "[10]", "result": "diminished"}, {"measurement": "MEK1/2 and ERK1/2 phosphorylation in tumors (in words)", "setting": "[11]", "result": "ability to suppress"}]}]}
